According to ChEMBL document CHEMBL1201862, “PubChem BioAssay data set” (2004):
Active and inactive are the calls of the source.

tested on: not listed separately; test: inhibitors of intracellular T. cruzi replication, confirmation, NIH3T3 host cells, beta-gal luminescence (AID 2044); type: functional, cell-based; settings: not given;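 further: intracellular parasites grown in NIH/3T3 mouse fibroblasts as host cells; luminescent beta-galactosidase reporter signal from transgenic T. cruzi replicating inside host cells; inhibitors lower the luminescence signal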

SMILES | EC50
CCc1c(C)nc2c(-c3ccccc3)c(C)nn2c1Nc1ccc(NC(C)=O)cc1 | 1.29 µM (active)
Clc1ccccc1OCCCCn1ccnc1 | 2.05 µM (active)
COc1ccccc1C(=O)Nn1c(C2CCC2)nc2ccccc2c1=O | 2.13 µM (active)
CN1CCN(C(=O)COc2ccc(S(=O)(=O)N(C)Cc3ccccc3)cc2)CC1 | 0.189 µM (active)
CC[n+]1ccccc1C=Cc1ccc(N(C)C)cc1 | 0.572 µM (active)
COc1ccccc1/C=C/C(=O)NCC(=O)N/N=C/c1ccccc1[N+](=O)[O-] | 1.59 µM (active)
N#Cc1cc([N+](=O)[O-])ccc1Oc1cccc(/C=N/NC(=O)c2cccc(Cl)c2)c1 | 0.531 µM (active)
Cn1c(-c2ccccc2)cc2c3no[n+]([O-])c3ccc21 | 0.707 µM (active)
O=C(Nc1cc(C(F)(F)F)ccc1-n1cncn1)c1ccc(-c2ccccc2)cc1 | 0.489 µM (active)
NC(=O)Cn1nc([N+](=O)[O-])nc1Oc1ccc(Br)cc1 | 0.174 µM (active)
O=[N+]([O-])c1ccc(S(=O)(=O)N2CCN(c3ccc(N4CCOCC4)nn3)CC2)cc1 | 1.12 µM (active)
COc1cc(/C=C(\C#N)c2nc3ccccc3[nH]2)ccc1Oc1ccc([N+](=O)[O-])cn1 | 1.12 µM (active)
O=C(Nc1cccc(-c2cn3cccnc3n2)c1)c1ccc(Br)o1 | 0.554 µM (active)

tested on: not listed separately; test: cytotoxicity toward NIH3T3 fibroblasts, dose response, counter-screen, cell-based, ATP luminescence, mouse fibroblasts (AID 2010); type: functional; settings: not given;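 further: cells exposed to compound for about 90 hours before reading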

SMILES | EC50
CCc1c(C)nc2c(-c3ccccc3)c(C)nn2c1Nc1ccc(NC(C)=O)cc1 | > 60 µM (not active)
Clc1ccccc1OCCCCn1ccnc1 | > 60 µM (not active)
COc1ccccc1C(=O)Nn1c(C2CCC2)nc2ccccc2c1=O | > 30 µM (not active)
CN1CCN(C(=O)COc2ccc(S(=O)(=O)N(C)Cc3ccccc3)cc2)CC1 | > 60 µM (not active)
CC[n+]1ccccc1C=Cc1ccc(N(C)C)cc1 | > 60 µM (not active)
COc1ccccc1/C=C/C(=O)NCC(=O)N/N=C/c1ccccc1[N+](=O)[O-] | > 60 µM (not active)
N#Cc1cc([N+](=O)[O-])ccc1Oc1cccc(/C=N/NC(=O)c2cccc(Cl)c2)c1 | > 60 µM (inconclusive)
Cn1c(-c2ccccc2)cc2c3no[n+]([O-])c3ccc21 | 8.01 µM (active)
O=C(Nc1cc(C(F)(F)F)ccc1-n1cncn1)c1ccc(-c2ccccc2)cc1 | > 60 µM (not active)
NC(=O)Cn1nc([N+](=O)[O-])nc1Oc1ccc(Br)cc1 | > 60 µM (not active)
O=[N+]([O-])c1ccc(S(=O)(=O)N2CCN(c3ccc(N4CCOCC4)nn3)CC2)cc1 | > 60 µM (not active)
COc1cc(/C=C(\C#N)c2nc3ccccc3[nH]2)ccc1Oc1ccc([N+](=O)[O-])cn1 | > 30 µM (not active)
O=C(Nc1cccc(-c2cn3cccnc3n2)c1)c1ccc(Br)o1 | > 60 µM (not active)

tested on: not listed separately; test: Luminescence Cell-Based Dose Retest to Confirm Inhibitors of Cancer Stem Cells. [Related pubchem assays (depositor defined):AID2717, AID2721]; type: functional; settings: Homo sapiens

SMILES | AC50
CCc1c(C)sc(NC(=O)/C=C/c2ccc3c(c2)OCO3)c1C(=O)OC | 0.768 µM (active)
O=C(C[n+]1ccccc1)NNc1ccccc1 | 1.47 µM (active)

target: Cytochrome P450 2C19 (Homo sapiens, UniProt P33261); test: Cytochrome panel assay with activity outcomes. Panel member name: p450-cyp2c19 Compounds with AC50 equal or less than 10 uM are considered active; type: functional; settings: not given
Sequence (P33261 whole entry): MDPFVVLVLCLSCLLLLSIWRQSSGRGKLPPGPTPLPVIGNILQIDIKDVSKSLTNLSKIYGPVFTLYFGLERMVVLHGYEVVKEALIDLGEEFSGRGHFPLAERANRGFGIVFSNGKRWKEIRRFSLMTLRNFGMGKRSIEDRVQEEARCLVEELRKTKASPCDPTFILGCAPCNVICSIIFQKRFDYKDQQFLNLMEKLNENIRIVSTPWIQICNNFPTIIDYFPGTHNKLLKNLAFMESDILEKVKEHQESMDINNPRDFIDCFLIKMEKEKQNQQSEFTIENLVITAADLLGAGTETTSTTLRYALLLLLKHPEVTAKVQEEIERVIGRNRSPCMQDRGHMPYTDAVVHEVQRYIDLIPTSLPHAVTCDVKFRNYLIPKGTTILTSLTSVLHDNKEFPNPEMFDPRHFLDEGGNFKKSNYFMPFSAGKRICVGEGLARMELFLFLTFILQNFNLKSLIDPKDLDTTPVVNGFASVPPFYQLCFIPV

SMILES | AC50
Cc1cccc(C)c1NC(=O)COc1cccc(/C=N/NC(=O)C(=O)NCc2ccccc2)c1 | inconclusive

same assay, conditions: read-out: AC50

SMILES | AC50
CC1(C)Cc2ccccc2C(N/N=C/c2cccc(F)c2)=N1 | 25.1 µM (inconclusive)
CCOc1ccc(C(F)(F)F)cc1NC(=O)c1ccc(OC)c([N+](=O)[O-])c1 | 0.282 µM (inconclusive)
C[C@@]12CC[C@H]3[C@@H](CC[C@@H]4C[C@H](O)CC[C@]43C)[C@H]1CC[C@H]2O | 31.6 µM (inconclusive)
O=S(=O)(O)c1cc(/N=[N+](\[O-])c2cc(S(=O)(=O)O)c3ccccc3c2)cc2ccccc12 | 3.98 µM (inconclusive)
C=CC[C@@H]1C=C[C@@H](O/N=C\c2ccc(C(=O)N3[C@H](c4ccc(C)cc4)[C@@H](C)CC[C@H]3C(=O)OC)cc2)[C@@H](CO)O1 | 3.16 µM (inconclusive)
CCOc1ncnc2c1oc1nc(CC(C)C)c3c(c12)CC(C)(C)OC3 | 39.8 µM (inconclusive)
O=C(O)COc1ccc(-c2nccc(-c3cccs3)n2)cc1 | 31.6 µM (inconclusive)
COc1ccc(C2NC(=O)c3sc4nc(C)c(C(C)=O)c(-c5ccc(Cl)cc5)c4c3N2)cc1 (stereo unspecified) | 2 µM (inconclusive)
COC(=O)[C@@]1(Cc2ccc(F)cc2)[C@H]2c3cc(C(=O)N4CCCC4)n(Cc4ccccc4)c3C[C@H]2CN1C(=O)c1ccccc1 | 31.6 µM (inconclusive)
COCC1C2CC[C@H]3C(OCc4ccc(F)cc4C(F)(F)F)OC[C@]4(C)[C@H]3C2=C(CN4C(=O)OC(C)(C)C)[C@H](C)C1COC (stereo partly specified) | 39.8 µM (inconclusive)
COCCNC(=O)c1onc(CSc2ccccc2F)c1C(=O)O | 0.141 µM (inconclusive)

tested on: INS1; test: beta cell apoptosis inhibitors, cytokine rescue, dose response, luminescence, retest (AID 449756); type: functional, cell-based; settings: Rattus norvegicus;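 further: cell death triggered by IL-1 beta plus TNF-alpha plus IFN-gamma mixture; protective hits raise ATP signal compared with cytokine alone wells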

SMILES | AC50
CC1(C)C(C=C(Cl)Cl)C1C(=O)Nc1ccc([N+](=O)[O-])cc1 (stereo unspecified) | 7.67 µM (active)
CCc1ccc(-n2c(C)cc(/C=N/NC(=O)c3ccncc3)c2C)cc1 | 14.9 µM (active)
Cn1c(-c2ccccc2)cc2c3no[n+]([O-])c3ccc21 | 2.09 µM (active)
COc1cc([N+](=O)[O-])ccc1NC(=O)CC1S/C(=N\c2ccc(F)cc2)N(CCC2=CCCCC2)C1=O (stereo unspecified) | 4.29 µM (active)
COc1ccc(-c2nn(-c3ccccc3)cc2/C=N/Nc2ccc3ccccc3n2)cc1OC | 1.5 µM (active)
CC(=O)Nc1ccc(C2=CC(=O)C[C@H](c3ccc4c(c3)OCO4)C2)cc1 | > 260 µM (inactive)
NNc1ncnc2scc(-c3ccc(Cl)cc3)c12 | 6.34 µM (active)
CCOCCCNC(=O)c1cnc2cc(OC)ccc2c1O | > 260 µM (inactive)

target: T1, Cytochrome P450 1A2 (Homo sapiens, UniProt P05177); settings: not given;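 further: PubChem cytochrome P450 panel assay, CYP1A2 panel member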
T1 sequence (P05177 whole entry): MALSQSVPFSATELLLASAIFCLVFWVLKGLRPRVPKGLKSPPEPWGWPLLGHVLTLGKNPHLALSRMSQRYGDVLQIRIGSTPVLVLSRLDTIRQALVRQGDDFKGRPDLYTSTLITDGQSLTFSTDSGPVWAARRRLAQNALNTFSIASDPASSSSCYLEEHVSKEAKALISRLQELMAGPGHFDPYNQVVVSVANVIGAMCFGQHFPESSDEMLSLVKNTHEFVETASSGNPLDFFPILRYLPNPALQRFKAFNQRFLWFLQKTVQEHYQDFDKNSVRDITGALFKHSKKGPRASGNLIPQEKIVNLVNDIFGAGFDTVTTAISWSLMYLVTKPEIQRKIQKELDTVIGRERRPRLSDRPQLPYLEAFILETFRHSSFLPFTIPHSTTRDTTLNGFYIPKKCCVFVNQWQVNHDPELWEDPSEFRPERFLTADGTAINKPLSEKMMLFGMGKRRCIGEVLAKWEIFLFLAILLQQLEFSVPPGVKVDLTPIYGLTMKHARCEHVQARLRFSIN

SMILES | AC50
Nc1ccccc1/N=N\c1c(S(=O)(=O)O)cc2cc(S(=O)(=O)O)cc(O)c2c1O | 6.31 µM (inconclusive)
C[C@@]12CC[C@H]3[C@@H](CC[C@@H]4C[C@H](O)CC[C@]43C)[C@H]1CC[C@H]2O | 15.8 µM (inconclusive)
CCc1cc2cc(C)c(C)cc2nc1SCC(=O)NNC(=O)c1ccco1 | 0.794 µM (inconclusive)
COc1cc2nncc(SCc3ccc(Cl)c(Cl)c3)c2cc1OC | 0.794 µM (inconclusive)
O=S(=O)(O)c1cc(/N=[N+](\[O-])c2cc(S(=O)(=O)O)c3ccccc3c2)cc2ccccc12 | 1.26 µM (inconclusive)
C[C@@H](C(=O)NCc1cccc2ccccc12)[C@H]1C[C@]1(C)[C@H](NC(=O)OCc1ccccc1)c1ccccc1 | 25.1 µM (inconclusive)
CCOc1ncnc2c1oc1nc(CC(C)C)c3c(c12)CC(C)(C)OC3 | 22.4 µM (inconclusive)
CCOc1cc(/C=N/NC(=O)CNc2cccc(C)c2)ccc1OC(=O)c1ccccc1 | 14.1 µM (inconclusive)
O=C(Nc1ccccc1)N1CC2(CCN(C(=O)c3ccncc3)CC2)C1 | 10 µM (inconclusive)
O=C(O)COc1ccc(-c2nccc(-c3cccs3)n2)cc1 | 15.8 µM (inconclusive)
Oc1ccc2c3c1O[C@H]1c4c(c5ccccc5n4Cc4ccccc4)C[C@]4(O)[C@H](C2)N(CC2CC2)CC[C@@]314 | 31.6 µM (inconclusive)
CC(C)C12CN3CC(C(C)C)(CN(C1)C3c1cccnc1)C2=O (stereo unspecified) | 25.1 µM (inconclusive)
Cc1ccc(Nc2nc(-c3sc(NC(=O)c4cccc(Cl)c4)nc3C)cs2)cc1 | 14.1 µM (inconclusive)
COc1ccccc1NC(=O)Cn1nnc(-c2ccccc2NC(=O)c2cc3ccccc3oc2=O)n1 | 15.8 µM (inconclusive)
CCCN(C/C=C\I)[C@@H]1CCc2ccc(O)cc2C1 | 25.1 µM (inconclusive)
Cc1c(Br)c([N+](=O)[O-])nn1C(C)C(=O)Nc1nccs1 (stereo unspecified) | 22.4 µM (inconclusive)
COC(=O)[C@@]1(Cc2ccc(F)cc2)[C@H]2c3cc(C(=O)N4CCCC4)n(Cc4ccccc4)c3C[C@H]2CN1C(=O)c1ccccc1 | 20 µM (inconclusive)
Cn1cc(-c2nc3cnc(Oc4ccccc4)nc3n(CCC#N)c2=O)c2ccccc21 | 3.16 µM (inconclusive)
O=c1c(-c2ccc(Cl)cc2)nc2cncnc2n1Cc1ccccc1Cl | 1.26 µM (inconclusive)
COCC1C2CC[C@H]3C(OCc4ccc(F)cc4C(F)(F)F)OC[C@]4(C)[C@H]3C2=C(CN4C(=O)OC(C)(C)C)[C@H](C)C1COC (stereo partly specified) | 31.6 µM (inconclusive)
O=C(O)c1ccccc1N[C@H](c1ccccc1)c1ccc2cccnc2c1O | 1.58 µM (inconclusive)
CCN1CCC[C@@H](OC(=O)C(c2ccccc2)c2ccccc2)C1 [PIPERIDOLATE] | 0.00126 µM (inconclusive)

target: Cytochrome P450 3A4 (Homo sapiens, UniProt P08684); settings: not given;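 further: CYP3A4 tested as one member of a cytochrome P450 panel screen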
Sequence (P08684 whole entry): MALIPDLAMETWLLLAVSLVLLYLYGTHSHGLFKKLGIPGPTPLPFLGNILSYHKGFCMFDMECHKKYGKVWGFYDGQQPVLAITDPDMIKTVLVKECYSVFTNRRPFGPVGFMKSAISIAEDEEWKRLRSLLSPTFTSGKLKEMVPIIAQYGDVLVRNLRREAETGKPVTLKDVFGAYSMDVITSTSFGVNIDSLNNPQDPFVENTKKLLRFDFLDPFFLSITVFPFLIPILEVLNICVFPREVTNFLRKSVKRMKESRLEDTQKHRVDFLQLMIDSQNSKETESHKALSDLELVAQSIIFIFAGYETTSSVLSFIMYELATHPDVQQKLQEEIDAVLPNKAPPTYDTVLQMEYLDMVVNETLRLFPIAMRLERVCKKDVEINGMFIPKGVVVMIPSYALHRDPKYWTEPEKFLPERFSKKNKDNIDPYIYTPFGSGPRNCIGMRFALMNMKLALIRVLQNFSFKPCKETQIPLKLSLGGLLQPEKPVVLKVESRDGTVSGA

SMILES | AC50
Cc1cccc(C)c1NC(=O)C[S+]([O-])CC(=O)Nc1ccc(F)cc1F (stereo unspecified) | 14.1 µM (inconclusive)
O=C1OC(OC2CCCCC2)(c2ccccc2)c2ccccc21 (stereo unspecified) | 15.8 µM (inconclusive)
O=C(O)C1=CCCN(CCOC(c2ccc(C(F)(F)F)cc2)c2ccc(C(F)(F)F)cc2)C1 | 39.8 µM (inconclusive)
CCOc1ccc(C(F)(F)F)cc1NC(=O)c1ccc(OC)c([N+](=O)[O-])c1 | 22.4 µM (inconclusive)
C[C@@]12CC[C@H]3[C@@H](CC[C@@H]4C[C@H](O)CC[C@]43C)[C@H]1CC[C@H]2O | 10 µM (inconclusive)
COc1cc2nncc(SCc3ccc(Cl)c(Cl)c3)c2cc1OC | 2 µM (inconclusive)
Cc1cnc(CNc2ccnc(-c3ccoc3)n2)cn1 | 25.1 µM (inconclusive)
O=C(CSc1nc2ccccc2o1)NC(=O)NCc1ccccc1 | 22.4 µM (inconclusive)
O=C(Nc1ccccc1)N1CC2(CCN(C(=O)c3ccncc3)CC2)C1 | 25.1 µM (inconclusive)
CCC(=O)Nc1cccc(NC(=O)CSc2nnnn2Cc2ccccc2)c1 | 3.55 µM (inconclusive)
Cc1ccc(Nc2nc(-c3sc(NC(=O)c4cccc(Cl)c4)nc3C)cs2)cc1 | 11.2 µM (inconclusive)
Cn1cc(-c2nc3cnc(Oc4ccccc4)nc3n(CCC#N)c2=O)c2ccccc21 | 7.94 µM (inconclusive)
O=c1c(-c2ccc(Cl)cc2)nc2cncnc2n1Cc1ccccc1Cl | 12.6 µM (inconclusive)
COCCNC(=O)c1onc(CSc2ccccc2F)c1C(=O)O | 35.5 µM (inconclusive)
CCOC(=O)Cn1cc(C(=O)c2ccccc2F)c2ccccc21 | 35.5 µM (inconclusive)

target: Cytochrome P450 2C9 (Homo sapiens, UniProt P11712); settings: not given
Sequence (P11712 whole entry): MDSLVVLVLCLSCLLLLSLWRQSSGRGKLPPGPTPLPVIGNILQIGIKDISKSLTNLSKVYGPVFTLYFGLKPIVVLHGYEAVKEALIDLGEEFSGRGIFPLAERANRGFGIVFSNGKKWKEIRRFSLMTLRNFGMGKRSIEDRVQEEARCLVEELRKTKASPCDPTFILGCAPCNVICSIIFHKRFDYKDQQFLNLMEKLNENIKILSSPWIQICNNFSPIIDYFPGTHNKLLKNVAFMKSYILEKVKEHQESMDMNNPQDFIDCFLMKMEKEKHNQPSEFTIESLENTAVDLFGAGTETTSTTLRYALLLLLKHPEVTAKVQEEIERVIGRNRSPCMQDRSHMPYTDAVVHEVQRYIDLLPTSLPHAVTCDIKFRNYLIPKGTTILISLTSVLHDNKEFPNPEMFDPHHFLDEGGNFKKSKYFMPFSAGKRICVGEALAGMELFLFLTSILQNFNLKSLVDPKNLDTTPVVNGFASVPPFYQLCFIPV

SMILES | AC50
Cc1cccc(C)c1NC(=O)C[S+]([O-])CC(=O)Nc1ccc(F)cc1F (stereo unspecified) | 39.8 µM (inconclusive)
O=C1OC(OC2CCCCC2)(c2ccccc2)c2ccccc21 (stereo unspecified) | 15.8 µM (inconclusive)
O=c1cnc2cnc(Nc3ccccc3)nc2n1CCc1ccccc1 | 0.251 µM (inconclusive)
C[C@@]12CC[C@H]3[C@@H](CC[C@@H]4C[C@H](O)CC[C@]43C)[C@H]1CC[C@H]2O | 25.1 µM (inconclusive)
O=S(=O)(O)c1cc(/N=[N+](\[O-])c2cc(S(=O)(=O)O)c3ccccc3c2)cc2ccccc12 | 7.94 µM (inconclusive)
O=C(O)c1ccccc1-c1ccccc1C(=O)Nc1ccc2c(c1)Cc1ccccc1-2 | 3.16 µM (inconclusive)
CCC(=O)Nc1cccc(NC(=O)CSc2nnnn2Cc2ccccc2)c1 | 5.01 µM (inconclusive)
CC(C)C12CN3CC(C(C)C)(CN(C1)C3c1cccnc1)C2=O (stereo unspecified) | 3.16 µM (inconclusive)
COc1ccccc1NC(=O)Cn1nnc(-c2ccccc2NC(=O)c2cc3ccccc3oc2=O)n1 | 0.794 µM (inconclusive)
CCCN(C/C=C\I)[C@@H]1CCc2ccc(O)cc2C1 | 25.1 µM (inconclusive)
COc1cccc2cc3c(=O)oc4ccccc4c3nc12 | 2.82 µM (inconclusive)
N=C(N)SCc1ccc(Cl)cc1Cl.O=[N+]([O-])c1c(O)c(Cl)cc(Cl)c1Cl | 7.94 µM (inconclusive)
COCC1C2CC[C@H]3C(OCc4ccc(F)cc4C(F)(F)F)OC[C@]4(C)[C@H]3C2=C(CN4C(=O)OC(C)(C)C)[C@H](C)C1COC (stereo partly specified) | 20 µM (inconclusive)
FC(F)(F)c1ccccc1-c1ccc2ncnc(NCc3cccs3)c2c1 | 1 µM (inconclusive)
O=C(/C=C\NCC(=O)c1ccccc1)c1ccccc1 | 1.78 µM (inconclusive)
O=C(O)c1ccccc1N[C@H](c1ccccc1)c1ccc2cccnc2c1O | 5.01 µM (inconclusive)
